Test results from US4927842A, “2,3,4,9-tetrahydro-1H-carbazole acetic acid derivatives, composition and use as anti-inflammatories” (American Home Products Corporation, priority 1989, dated 1990).

System: rats
Assay: Preventative Adjuvant Edema (acute anti-inflammatory effect in rats)
Format: in vivo, Male Sprague Dawley rats
Conditions: 25 mg/kg, p.o.; given immediately before, 24 and 48 hours after Freund's complete adjuvant; hind paw edema volume day 0 to day 3
Experimental: This test is a primary screen for anti-inflammatory drugs.
Male Sprague Dawley rats (180-200 g) are used. The animals have free access to water but food is withdrawn 18 hours before testing.
Freund's complete adjuvant is prepared by suspending 5 mg killed and dried Mycobacterium butyricum (Difco) in 1 mL mineral oil. The test compounds are dissolved in distilled water or suspended in 0.5% Tween 80 in distilled water according to their solubility. For primary screening all drugs are administered by gastric lavage at the arbitrary dosage of 25 mg/kg, p.o. in a volume of 0.5 mL/100 g body weight to groups of 10 animals.
The method is essentially that described by Wax et al, J. Pharmacol. Exp. Ther., 192, 166-171 (1975). Groups of rats are injected intradermally in the left hand paw with 0.1 mL of Freund's complete adjuvant. The test compound or vehicle is administered immediately before the adjuvant, 24 hours and 48 hours after the adjuvant (day 0, 1 and 2). The injected hind paw volume is measured before the injection of adjuvant and 24 hours after the last drug administration (day 3) by means of a plethysmometer (Buxco Electronics Inc.). The difference between the hind paw volume on day 0 and day 3 represents the edema volume. Etodolac (25 mg/kg, p.o.) is included as a positive control.
The mean edema volume (expressed as mL±SEM) is calculated for each group and the percentage protection conferred by the drug is calculated: [formula] where c is the mean edema volume for the untreated controls and t is the mean edema volume for the drug treated group.

CC[C@]1(CC(=O)O)CC[C@@H](CC=NOC)c2c1[nH]c1c(C)cccc21 (relative stereo) [Example 2, cis-1-Ethyl-2,3,4,9-tetrahydro-4-[2-(methoxyimino)ethyl]-8-methyl-1H-carbazole-1-acetic Acid]
% Inhibition: 45%

CC[C@]1(CC(=O)O)CC[C@@H](CC(C)=O)c2c1[nH]c1c(C)cccc21 (relative stereo) [Example 3, cis-1-Ethyl-2,3,4,9-tetrahydro-8-methyl-4-(2-oxopropyl)-1H-carbazole-1-acetic Acid]
% Inhibition: 52%

CC[C@]1(CC(=O)O)CC[C@@H](CC#N)c2c1[nH]c1c(C)cccc21 (relative stereo) [Example 4, cis-4-(Cyanomethyl)-1-ethyl-2,3,4,9-tetrahydro-8-methyl-1H-carbazole-1-acetic Acid]
% Inhibition: 52%

cis-1-Ethyl-2,3,4,9-tetrahydro-4-[2-(hydroxyimino)ethyl]-8-methyl-1H-carbazole-1-acetic Acid [Example 1]
% Inhibition: 59%
